Counter-ions that a name gives are not always drawn.
Target: T1, β-adrenergic receptors (Cavia porcellus, UniProt H0W3H1)
T1 construct: The ventricles and adipose tissue were carefully cut away to leave the atria as an intact pair; from tissue; host or cells: isolated guinea pig atria (intact pair)
Test: Inhibition of isoproterenol-induced enhancement of the rate of contraction of guinea pig atrial pairs in vitro (KB as β-antagonist)
Type: cell-based
Conditions: guinea pig atria, versus isoproterenol, KB from dose ratio of isoproterenol EC50, 37° C., read-out: receptor dissociation constant (KB) as a β-antagonist
Procedure: The β-blocking activity of the compounds of structure (I) can be assessed in a test for inhibition of isoproterenol-induced enhancement of the rate of contraction of guinea pig atrial pairs in vitro.
Inhibition of isoproterenol-induced enhancement of constricted guinea pig atria
A guinea pig (500-700 g) was injected with sodium pentobarbital (50 mg/kg, ip). When anesthetized, the heart was removed and placed in cold (5°-10° C.), oxygenated Krebs-Hensleit solution. The ventricles and adipose tissue were carefully cut away to leave the atria as an intact pair. A thread was tied to the apex of each atrium and the tissue suspended in a 50 ml tissue bath, attached to a force-displacement transducer. A diastolic tension of 1 g was maintained. Atrial contraction rate was measured using biotachometer, driven by the transducer amplifier.
A 30 minute stabilization period was allowed before obtaining the first dose response curve, during which time the tissue was washed several times with fresh solution. A concentration-response curve to isoprotererol was then determined, increasing agonist concentrations when the rate response to the previous dose had stabilized. After this determination, any β-antagonist activity of the test compound was measured via a concentration-response curve. […]

T1 sequence (H0W3H1 1-470): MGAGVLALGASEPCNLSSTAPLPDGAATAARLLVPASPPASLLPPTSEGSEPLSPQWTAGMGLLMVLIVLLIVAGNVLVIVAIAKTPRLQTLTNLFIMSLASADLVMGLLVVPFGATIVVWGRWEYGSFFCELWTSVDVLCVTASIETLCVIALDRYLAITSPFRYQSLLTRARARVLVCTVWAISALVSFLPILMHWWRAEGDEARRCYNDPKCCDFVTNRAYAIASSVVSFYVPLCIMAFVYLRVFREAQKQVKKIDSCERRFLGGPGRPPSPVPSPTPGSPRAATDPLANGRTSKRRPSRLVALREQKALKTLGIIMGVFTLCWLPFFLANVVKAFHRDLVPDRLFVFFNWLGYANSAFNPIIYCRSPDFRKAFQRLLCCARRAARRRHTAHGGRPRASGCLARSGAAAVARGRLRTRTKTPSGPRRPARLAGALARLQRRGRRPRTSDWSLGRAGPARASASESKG

Kb: 67 nM
Compound: COc1cc(CC2NCCc3cc(Cl)c(Cl)cc32)cc(OC)c1OC (stereo not shown) [Example 1, 6,7-dichloro-1-(3,4,5-trimethoxybenzyl)-1,2,3,4-tetrahydroisoquinoline fumarate]

Source: patent US4707485A, “Substituted te[1]trahydroisoquinoline derivatives having β-adrenergic receptor activity” (Smithkline Beckman Corporation, priority 1985, dated 1987)
